The source of these data is ChEMBL document CHEMBL1138108, “Syntheses and evaluation of novel fatty acid-second-generation taxoid conjugates as promising anticancer agents” (Bioorg Med Chem Lett, 2006).

The source made the active and inactive calls. The rule behind the calls is not given here.

Assay [1] relates to DLD-1. Kind of assay: Efficacy against Pgp+ human colon tumor xenograft DLD1 in SCID mice at 240 mg/kg, iv. It counts as functional, organism-based. On the set-up: dose 240 mg/kg. (In general: A xenograft is tissue or cells of one species grown in another, often human tumour cells in immunodeficient mice.)
A further assay concerns MCF7S. Put plainly: Cytotoxicity against human mammary tumor cell line MCF7-S. It counts as functional, cell-based.
The next assay concerns MCF7R. Kind of assay: Cytotoxicity against human mammary tumor cell line MCF7-R. In kind it is functional, cell-based.
The test system of the next assay is A121. Put plainly: Efficacy against Pgp- human ovarian tumor xenograft A121 in SCID mice at 90 mg/kg, iv.
The subject of assay [2] is DLD-1. Kind of assay: Efficacy against Pgp+ human colon tumor xenograft DLD1 in SCID mice at 75 mg/kg, iv. In kind it is functional, organism-based. More on the design: dose 75 mg/kg.

As to `CC/C=C\C/C=C\C/C=C\C/C=C\C/C=C\C/C=C/CCC(=O)O[C@@H](C(=O)O[C@H]1C[C@@]2(O)[C@@H](OC(=O)c3ccccc3)C3[C@](C)(C(=O)[C@H](OC(C)=O)C(=C1C)C2(C)C)[C@@H](O)C[C@H]1OC[C@@]31OC(C)=O)[C@@H](NC(=O)c1ccccc1)c1ccccc1` (some centres not stated), in the assay with DLD-1 [1], the outcome was inactive.

In the case of `CC(=O)O[C@@]12CO[C@@H]1C[C@H](O)[C@@]1(C)C(=O)[C@H](OC(=O)C3CC3)C3=C(C)[C@@H](OC(=O)[C@H](O)[C@H](CC(C)C)NC(=O)OC(C)(C)C)C[C@@](O)([C@@H](OC(=O)c4ccccc4)C12)C3(C)C` (some centres not stated), the IC50 in the assay on MCF7S is 0.51 nM; in the assay with MCF7R it was 7.9 nM. On to `CC(=O)O[C@H]1C(=O)[C@@]2(C)[C@H]([C@H](OC(=O)c3ccccc3)[C@]3(O)C[C@H](OC(=O)[C@H](O)[C@@H](NC(=O)c4ccccc4)c4ccccc4)C(C)=C1C3(C)C)[C@]1(OC(C)=O)CO[C@@H]1C[C@@H]2O` [PACLITAXEL], for which the IC50 worked out at 1.7 nM with MCF7S and 550 nM with MCF7R.

As for `CC(=O)O[C@@]12CO[C@@H]1C[C@H](O)[C@@]1(C)C(=O)[C@H](OC(=O)C3CC3)C3=C(C)[C@@H](OC(=O)[C@H](O)[C@H](C=C(C)C)NC(=O)OC(C)(C)C)C[C@@](O)([C@@H](OC(=O)c4ccccc4)[C@H]21)C3(C)C`, the outcome with DLD-1 [1] was Active. Also, the IC50 in the assay on MCF7S came out at 0.2 nM; with MCF7R, 3.9 nM.

With `CCC(=O)O[C@H]1C(=O)[C@@]2(C)[C@H]([C@H](OC(=O)c3ccccc3)[C@]3(O)C[C@H](OC(=O)[C@H](O)[C@H](CC(C)C)NC(=O)OC(C)(C)C)C(C)=C1C3(C)C)[C@]1(OC(C)=O)CO[C@@H]1C[C@@H]2O`, the IC50 in the assay with MCF7S was 0.35 nM; in the assay with MCF7R, 5.1 nM. For the compound `CC/C=C\C/C=C\C/C=C\C/C=C\C/C=C\C/C=C/CCC(=O)O[C@@H](C(=O)O[C@H]1C[C@@]2(O)[C@@H](OC(=O)c3ccccc3)C3[C@](C)(C(=O)[C@H](OC(=O)N(C)C)C(=C1C)C2(C)C)[C@@H](O)C[C@H]1OC[C@@]31OC(C)=O)[C@H](C=C(C)C)NC(=O)OC(C)(C)C` (some centres not stated), in the assay with A121, the result was Active. `COC(=O)O[C@H]1C(=O)[C@@]2(C)C([C@H](OC(=O)c3ccccc3)[C@]3(O)C[C@H](OC(=O)[C@H](O)[C@H](C=C(C)C)NC(=O)OC(C)(C)C)C(C)=C1C3(C)C)[C@]1(OC(C)=O)CO[C@@H]1C[C@@H]2O` (some centres not stated): the results for the IC50 in the assay on MCF7S and in the assay with MCF7R were 0.14 nM and 9.7 nM, respectively. For the compound `CCCCC/C=C\C/C=C\CCCCCCCC(=O)O[C@@H](C(=O)O[C@H]1C[C@@]2(O)[C@@H](OC(=O)c3ccccc3)C3[C@](C)(C(=O)[C@H](OC(=O)CC)C(=C1C)C2(C)C)[C@@H](O)C[C@H]1OC[C@@]31OC(C)=O)[C@H](C=C(C)C)NC(=O)OC(C)(C)C` (some centres not stated), in the assay on DLD-1 [2], the outcome was Active. As to `CC(=O)O[C@@]12CO[C@@H]1C[C@H](O)[C@@]1(C)C(=O)[C@H](O)C3=C(C)[C@@H](OC(=O)[C@H](O)[C@@H](NC(=O)OC(C)(C)C)c4ccccc4)C[C@@](O)([C@@H](OC(=O)c4ccccc4)[C@H]21)C3(C)C` [DOCETAXEL], the IC50 turned out to be 1 nM with MCF7S and 723 nM in the assay with MCF7R.

With `CC/C=C\C/C=C\C/C=C\CCCCCCCC(=O)O[C@@H](C(=O)O[C@H]1C[C@@]2(O)[C@@H](OC(=O)c3ccccc3)C3[C@](C)(C(=O)[C@H](OC(=O)CC)C(=C1C)C2(C)C)[C@@H](O)C[C@H]1OC[C@@]31OC(C)=O)[C@H](C=C(C)C)NC(=O)OC(C)(C)C` (some centres not stated), the result in the assay on DLD-1 [2] was Active.

Consider `CCC(=O)O[C@H]1C(=O)[C@@]2(C)[C@H]([C@H](OC(=O)c3ccccc3)[C@]3(O)C[C@H](OC(=O)[C@H](O)[C@H](C=C(C)C)NC(=O)OC(C)(C)C)C(C)=C1C3(C)C)[C@]1(OC(C)=O)CO[C@@H]1C[C@@H]2O`, for which the outcome in the assay on DLD-1 [1] was Active. The IC50 with MCF7S is 0.18 nM; with MCF7R, 4 nM. As to `CC(=O)O[C@@]12CO[C@@H]1C[C@H](O)[C@@]1(C)C(=O)[C@H](OC(=O)N(C)C)C3=C(C)[C@@H](OC(=O)[C@H](O)[C@H](C=C(C)C)NC(=O)OC(C)(C)C)C[C@@](O)([C@@H](OC(=O)c4ccccc4)C12)C3(C)C` (some centres not stated), the IC50 was determined as 0.13 nM in the assay with MCF7S and 7.4 nM in the assay on MCF7R.

Usually IC50 stands for the concentration at which inhibition is half-maximal.
